Results on 63 molecules are retold here after US11649236B2, “Polycyclic carbamoylpyridone derivative” (Shionogi & Co., Ltd., priority 2018, dated 2023).

This assay deals with HIV. The experiment in a line: Anti-HIV activity (MT-4 cells, MTT). As to conditions: Human immunodeficiency virus 1, MT4, 96 h, cultured 4 days. The class given is cell-based. The procedure: Serial dilutions of a test sample were prepared in a 96-well microplate (50 μL/well). 2.5×10^5 cells/mL of a MT-4 cell suspension was dispensed at 100 μL/well to the plate containing the test sample. Then, an HIV virus solution was dispensed at 50 μL/well. The plate was mixed with a plate mixer and cultured for 4 days in a CO2 incubator. An MTT (3-(4,5-dimethylthiazol-2-yl)-2,5-diphenyltetrazolium bromide) solution was dispensed at 30 μL/well. The plate was reacted for 1 hour in a CO2 incubator. 150 μL of the supernatant was removed from each well so as not to take up the cells. 150 μL of a cell lysis solution was added to each well and well mixed with a plate mixer until the cells were completely lysed. The absorbance of the mixed plate was measured at two wavelengths of 560 nm and 690 nm with a microplate reader.

SMILES strings stand for the structures.

The term EC50 denotes the concentration that produces a half-maximal response. A lower EC50 goes with greater potency.

`O=C(NCc1ccc(F)cc1F)c1cn2c(c(O)c1=O)C(=O)N(C[C@H]1CCCO1)[C@@H]1CCCCN12` [Compound I-022]: the EC50 was 1.1 nM.

With `CCN1C(=O)c2c(O)c(=O)c(C(=O)NCc3ccc(F)cc3F)cn2N2[C@H](C)c3cc(F)ccc3[C@@H]12` [II-155], the concentration for a half-maximal effect (EC50) came out at 1.2 nM.

`O=C(NCc1ccc(F)cc1F)c1cn2c(c(O)c1=O)C(=O)N([C@@H]1C[C@@H]1F)[C@@H]1CCCCN12` [Compound I-044]: the concentration giving a half-maximal response (EC50) worked out at 1.2 nM.

`CCN1C(=O)c2c(O)c(=O)c(C(=O)NCc3cccc(Cl)c3F)cn2N2[C@H](C)CCC[C@@H]12` [II-032] showed an EC50 of 1.5 nM.

Molecule `CCN1C(=O)c2c(O)c(=O)c(C(=O)NCc3c(F)cc(F)cc3OC)cn2N2CCCC[C@@H]12` [II-035] displayed a half-maximal effective concentration (EC50) of 1.3 nM.

In the case of `CN1C(=O)c2c(O)c(=O)c(C(=O)NCc3ccnc(Cl)c3F)cn2N2CCCC[C@@H]12` [II-103], it took 3.7 nM to reach a half-maximal effect (EC50).

With `CCN1C(=O)c2c(O)c(=O)c(C(=O)NCc3cccc(Cl)c3)cn2N2CCCC[C@@H]12` [II-134], the 50% effective concentration (EC50) came out at 3 nM.

In turn, `CCN1C(=O)c2c(O)c(=O)c(C(=O)NCc3cc(Cl)c(F)cc3F)cn2N2CCCC[C@@H]12` [Compound I-007] showed an EC50 of 4 nM.

With `CCN1C(=O)c2c(O)c(=O)c(C(=O)NCc3cccc(Cl)c3F)cn2N2[C@H](C)CC[C@@H]12` [II-008], the EC50 is 1.5 nM.

In turn, `CN1C(=O)c2c(O)c(=O)c(C(=O)NCc3c(F)cc(F)cc3F)cn2N2Cc3ccccc3[C@@H]12` [II-120] gave a concentration for a half-maximal effect (EC50) of 0.22 nM.

For the molecule `CCN1C(=O)c2c(O)c(=O)c(C(=O)NCc3ccc(F)cc3F)cn2N2CCc3ccccc3[C@@H]12` [Compound I-027], the EC50 came out at 0.89 nM.

The molecule `CCN1C(=O)c2c(O)c(=O)c(C(=O)NCc3ccc(F)cc3F)cn2N2Cc3ccc(Cl)cc3[C@@H]12` [II-084] displayed an EC50 of 1.8 nM.

In the case of `CCN1C(=O)c2c(O)c(=O)c(C(=O)NCc3ccc(F)cc3F)cn2N2CCN(C(=O)OC)C[C@@H]12` [II-125], a half-maximal response (EC50) required 1.3 nM.

The molecule `CN1C(=O)c2c(O)c(=O)c(C(=O)NCc3ccc(F)c(Cl)c3F)cn2N2CCCC[C@@H]12` [II-033] had a concentration giving a half-maximal response (EC50) of 0.22 nM.

Molecule `CCN1C(=O)c2c(O)c(=O)c(C(=O)NCc3ccc(F)cc3F)cn2N2CCOCC[C@@H]12` [II-096] yielded an EC50 of 0.68 nM.

The molecule `CCN1C(=O)c2c(O)c(=O)c(C(=O)NCc3ccc(F)cc3F)cn2N2[C@@H](COC)CC[C@@H]12` [II-038] yielded an EC50 of 2 nM.

In turn, `COC[C@@H]1CC[C@H]2N(C)C(=O)c3c(O)c(=O)c(C(=O)NCc4ccc(F)cc4F)cn3N12` [II-119] showed an EC50 of 0.54 nM.

For `O=C(NCc1ccc(F)cc1F)c1cn2c(c(O)c1=O)C(=O)N(CC(F)F)[C@@H]1CCCCN12` [Compound I-046], a half-maximal response (EC50) required 0.43 nM.

In turn, `C[C@H]1C[C@H]2N(C)C(=O)c3c(O)c(=O)c(C(=O)NCc4ccc(Cl)cc4F)cn3N2C1` [II-065] came in with an EC50 of 4.9 nM.

On to `CCN1C(=O)c2c(O)c(=O)c(C(=O)NCc3c(F)cccc3Cl)cn2N2CCCC[C@@H]12` [II-148], for which a half-maximal response (EC50) required 0.5 nM.

The molecule `CCN1C(=O)c2c(O)c(=O)c(C(=O)NCc3ncc(F)cc3F)cn2N2CCCC[C@@H]12` [II-141] yielded an EC50 of 0.65 nM.

As to `CCN1C(=O)c2c(O)c(=O)c(C(=O)NCc3ccc(F)cc3F)cn2N2Cc3ccc(F)cc3[C@@]12C` [II-154], a half-maximal response (EC50) required 0.67 nM.

With `CCN1C(=O)c2c(O)c(=O)c(C(=O)NCc3c(F)cc(F)cc3F)cn2N2C[C@@H]3CCC[C@@H](C3)[C@@H]12` [II-016], it took 0.65 nM to reach a half-maximal effect (EC50).

Molecule `CCN1C(=O)c2c(O)c(=O)c(C(=O)NCc3cc(F)cc(F)c3F)cn2N2CCCC[C@@H]12` [II-142] came in with a 50% effective concentration (EC50) of 0.74 nM.

As to `CCN1C(=O)c2c(O)c(=O)c(C(=O)NCc3ccc(F)cc3F)cn2N2[C@H](C)CC[C@@]12C` [II-131], the EC50 stood at 0.49 nM.

In turn, `CCN1C(=O)c2c(O)c(=O)c(C(=O)NCc3ccc(F)cc3F)cn2N2CCC3(C[C@@H]12)OCCO3` [II-067] gave an EC50 of 0.62 nM.

`CCN1C(=O)c2c(O)c(=O)c(C(=O)NCc3c(F)cc(F)cc3F)cn2N2[C@H](C)CCC[C@@H]12` [II-053] gave a concentration giving a half-maximal response (EC50) of 1.4 nM.

`CN1C(=O)c2c(O)c(=O)c(C(=O)NCc3ccc(Cl)cc3F)cn2N2Cc3ccccc3[C@@H]12` [II-029] showed a concentration giving a half-maximal response (EC50) of 3.8 nM.

`CCN1C(=O)c2c(O)c(=O)c(C(=O)NCc3ccc(F)nc3F)cn2N2CCCC[C@@H]12` [II-057] showed an EC50 of 1.7 nM.

`CN1C(=O)c2c(O)c(=O)c(C(=O)NCc3ccc(Cl)cc3F)cn2N2CCCC[C@@H]12` [II-045]: the EC50 is 2 nM.

The molecule `O=C(NCc1ccc(F)cc1F)c1cn2c(c(O)c1=O)C(=O)N(CC1CC1)[C@@H]1CCCCN12` [Compound I-028] returned an EC50 of 1.9 nM.

With `CCN1C(=O)c2c(O)c(=O)c(C(=O)NCc3ccc(F)cc3F)cn2N2C[C@H]3C[C@H](C3)[C@@H]12` [II-037], the EC50 turned out to be 0.64 nM.

As for `CCN1C(=O)c2c(O)c(=O)c(C(=O)NCc3ccc(F)cc3F)cn2N2C[C@@]3(CCOC3)C[C@@H]12` [II-149], the EC50 turned out to be 1.2 nM.

With `CCN1C(=O)c2c(O)c(=O)c(C(=O)NCc3ccc(F)nc3F)cn2N2C[C@@H]3CC[C@@H](C3)[C@@H]12` [II-056], the 50% effective concentration (EC50) was 0.83 nM.

`CCN1C(=O)c2c(O)c(=O)c(C(=O)NCc3cc(F)c(F)cc3F)cn2N2CCCC[C@@H]12` [Compound I-036]: the EC50 was 1.4 nM.

With `CCN1C(=O)c2c(O)c(=O)c(C(=O)NC3(c4ccc(F)cc4F)CC3)cn2N2CCCC[C@@H]12` [Compound I-017], the EC50 worked out at 6.1 nM.

`CCN1C(=O)c2c(O)c(=O)c(C(=O)NCc3cc(F)c(F)c(F)c3)cn2N2CCCC[C@@H]12` [Compound I-037] had an EC50 of 2 nM.

Molecule `CCN1C(=O)c2c(O)c(=O)c(C(=O)NCc3ccc(F)c(Cl)c3F)cn2N2CCCC[C@@H]12` [Compound I-003] yielded an EC50 of 1.4 nM.

`C[C@@H]1CCN2[C@@H](C1)N(C)C(=O)c1c(O)c(=O)c(C(=O)NCc3ccc(F)cc3F)cn12` [II-086] came in with a concentration for a half-maximal effect (EC50) of 1 nM.

Regarding `CN1C(=O)c2c(O)c(=O)c(C(=O)NCc3cccc(Cl)c3F)cn2N2CC[C@H](C(F)(F)F)C[C@@H]12` [II-151], the half-maximal effective concentration (EC50) amounted to 1.6 nM.

`CN1C(=O)c2c(O)c(=O)c(C(=O)NCc3cccc(Cl)c3F)cn2N2C[C@@H]3CCC[C@@H](O3)[C@@H]12` [II-152] showed an EC50 of 0.7 nM.

`CCN1C(=O)c2c(O)c(=O)c(C(=O)NCc3ccc(F)cc3F)cn2N2CCN(C(=O)NC)C[C@@H]12` [II-110] gave an EC50 of 2.1 nM.

Turning to `CCN1C(=O)c2c(O)c(=O)c(C(=O)NCc3ccc(F)cc3F)cn2N2CCOC[C@@H]12` [Compound I-001], it took 0.52 nM to reach a half-maximal effect (EC50).

In turn, `CCN1C(=O)c2c(O)c(=O)c(C(=O)NCc3ccc(F)cc3F)cn2N2Cc3cc(F)ccc3[C@@H]12` [II-128] gave a concentration giving a half-maximal response (EC50) of 0.72 nM.

`CCN1C(=O)c2c(O)c(=O)c(C(=O)NCc3ccc(Cl)cc3F)cn2N2CCCC[C@@H]12` [Compound I-035] registered an EC50 of 3.2 nM.

`COC[C@@H]1CC[C@H]2N(C(C)C)C(=O)c3c(O)c(=O)c(C(=O)NCc4c(F)cc(F)cc4F)cn3N12` [II-011] registered an EC50 of 0.49 nM.

For the molecule `CCN1C(=O)c2c(O)c(=O)c(C(=O)NCc3cccc(Cl)c3F)cn2N2CCCC[C@@H]12` [Compound I-019], the EC50 came to 1.8 nM.

For the molecule `CCN1C(=O)c2c(O)c(=O)c(C(=O)NCc3ccc(Cl)cc3)cn2N2CCCC[C@@H]12` [II-140], the concentration for a half-maximal effect (EC50) came out at 3.6 nM.

`CCN1C(=O)c2c(O)c(=O)c(C(=O)NCc3ccc(F)cc3F)cn2N2CCCOC[C@@H]12` [II-107] came in with an EC50 of 2.3 nM.

On to `C[C@H](N1C(=O)c2c(O)c(=O)c(C(=O)NCc3ccc(F)cc3F)cn2N2CCCC[C@@H]12)C(F)(F)F` [II-043], for which it took 1.4 nM to reach a half-maximal effect (EC50).

The molecule `CCN1C(=O)c2c(O)c(=O)c(C(=O)NCc3ccc(F)cc3F)cn2N2CCN(Cc3ccccc3)C[C@@H]12` [II-100] yielded a half-maximal effective concentration (EC50) of 3 nM.

Turning to `CC(C)N1C(=O)c2c(O)c(=O)c(C(=O)NCc3c(F)cc(F)cc3F)cn2N2C[C@@H](C)CC[C@@H]12` [II-001], the EC50 came out at 1 nM.

With `CCN1C(=O)c2c(O)c(=O)c(C(=O)NCc3ccc(F)cc3F)cn2N2C[C@@H](OC)CC[C@@H]12` [II-126], the 50% effective concentration (EC50) turned out to be 0.45 nM.

`CCN1C(=O)c2c(O)c(=O)c(C(=O)NCc3nccc(Cl)c3F)cn2N2CCCC[C@@H]12` [II-019] registered a concentration for a half-maximal effect (EC50) of 0.23 nM.

For `C[C@H]1C[C@H]2N(C)C(=O)c3c(O)c(=O)c(C(=O)NCc4ccc(F)cc4F)cn3N2C1` [II-121], the EC50 turned out to be 0.71 nM.

The molecule `C[C@H]1CCN2[C@@H](C1)N(C)C(=O)c1c(O)c(=O)c(C(=O)NCc3cccc(Cl)c3F)cn12` [II-058] came in with a concentration giving a half-maximal response (EC50) of 0.79 nM.

In turn, `CCOC[C@@H](C)N1C(=O)c2c(O)c(=O)c(C(=O)NCc3ccc(F)cc3F)cn2N2CCCC[C@@H]12` [II-034] came in with a concentration giving a half-maximal response (EC50) of 0.73 nM.

As for `CCN1C(=O)c2c(O)c(=O)c(C(=O)NCc3c(F)ccc(Cl)c3F)cn2N2CCCC[C@@H]12` [Compound I-048], the midpoint of the response, the EC50, lay at 1.2 nM.

The molecule `CCN1C(=O)c2c(O)c(=O)c(C(=O)NCc3ccc(F)cc3F)cn2N2CCC(C)(C)[C@@H]12` [II-085] returned an EC50 of 1.3 nM.

Regarding `O=C(NCc1ccc(F)cc1F)c1cn2c(c(O)c1=O)C(=O)N1CCCC[C@]13CCCCN23` [II-147], it took 0.66 nM to reach a half-maximal effect (EC50).

`C[C@H]1CC[C@H]2N(C)C(=O)c3c(O)c(=O)c(C(=O)NCc4c(F)cc(F)cc4F)cn3N2C1` [II-007]: the response was half-maximal at 0.62 nM (EC50).

In the case of `CCN1C(=O)c2c(O)c(=O)c(C(=O)NCc3ccc(F)cc3F)cn2N2C[C@H](C)C[C@@H]12` [II-123], the half-maximal effective concentration (EC50) amounted to 1.6 nM.

In the case of `CCN1C(=O)c2c(O)c(=O)c(C(=O)NC3(c4cccc(Cl)c4F)CC3)cn2N2CCCC[C@@H]12` [II-003], the 50% effective concentration (EC50) came out at 6.2 nM.
